Results on two molecules are retold here after ChEMBL document CHEMBL6087460, “Generating a Peptide Library Using the Repeats of Amino Acid Scaffolds Created by Sliding the Framework of a 7-mer Human Chemerin Segment and Discovery of Potent Antibacterial and Antimycobacterial Peptides” (J Med Chem, 2025).

The source made the active and inactive calls. Where a SMILES comes first, the peptide text is derived from it.

Data set [1] in a line: Drug localization in cytoplasm of Escherichia coli ATCC 25922 at 3 times MIC by confocal microscopy. It is filed as ADME, subcellular.
The test system of data set [2] is Mycolicibacterium smegmatis. Kind of data set: Disruption of cell membrane integrity in Mycobacterium smegmatis incubated for 2 hrs by EtBr uptake assay. It is filed as functional, organism-based.
In data set [3] the test system is Escherichia coli. The data set can be described thus: Bactericidal activity against Escherichia coli ATCC 25922 at MIC incubated for 45 mins by time kill assay. It counts as functional, organism-based.
A short description of data set [4]: Toxicity in mouse assessed as animal survival at 15 mg/kg, iv administered each day for 5 days measured after 7 days post-last dose. It counts as organism-based. Conditions: in vivo, 120 h, time 5 day.
Data set [5] has as its system Staphylococcus aureus. Kind of data set: Induction of membrane depolarization in Staphylococcus aureus ATCC 25923 by diSC3-5 dye based analysis. It is filed as functional, organism-based.
For data set [6], the system named is Staphylococcus aureus. The data set can be described thus: Bactericidal activity against Staphylococcus aureus ATCC 25923 incubated for 16 to 18 hrs. It is filed as functional. Particulars: time 16-18 hrs.
Data set [7] relates to Escherichia coli. The data set can be described thus: Antibacterial activity against Escherichia coli ATCC 25922 incubated for 16 to 18 hrs in presence of 10 percent human serum by broth dilution assay. It is filed as functional. Conditions: time 16-18 hrs. (In general: Broth dilution looks for growth in wells or tubes with falling amounts of substance.)
The nature of data set [8]: Toxicity in mouse assessed as change in serum ALT level at 15 mg/kg, iv administered each day for 5 days measured after 7 days post-last dose. It counts as organism-based. Particulars: in vivo, 120 h, time 5 day.
For data set [9], the system named is Staphylococcus aureus. Kind of data set: Antibacterial activity against Staphylococcus aureus ATCC 25923 incubated for 16 to 18 hrs by broth dilution assay. It is filed as functional. Conditions: time 16-18 hrs.
The subject of data set [10] is Staphylococcus aureus. The data set can be described thus: Antibacterial activity against Staphylococcus aureus ATCC 25923 incubated for 16 to 18 hrs in presence of 10 percent human serum by broth dilution assay. It is filed as functional. Particulars: time 16-18 hrs.
Data set [11] has as its system Staphylococcus aureus. Kind of data set: Induction of resistance development in methicillin-resistant Staphylococcus aureus BAA-44 assessed as fold increase in MIC at sub-MIC measured after 30 passages relative to control. It is filed as functional.
The test system of data set [12] is Staphylococcus aureus. The data set can be described thus: Induction of resistance development in Staphylococcus aureus ATCC 25923 assessed as fold increase in MIC at sub-MIC measured after 30 passages relative to control. It counts as functional.
Data set [13] can be described thus: Hemolytic activity in human RBC assessed as disruption of membrane integrity by Alexa Fluor-Annexin V staining based analysis. It is filed as toxicity, cell-based. Conditions: erythrocyte.
Data set [14] relates to Staphylococcus aureus. The data set can be described thus: Induction of resistance development in methicillin-resistant Staphylococcus aureus 33591 assessed as fold increase in MIC at sub-MIC measured after 30 passages relative to control. It counts as functional.
Data set [15] can be described thus: Retention time of compound by RP-HPLC method. It is filed as physicochemical.
The nature of data set [16]: Toxicity in BALB/c mouse infected with Mycobacterium bovis BCG assessed as animal survival at 2.5 to 5 mg/kg, iv administered once a day for 2 weeks. It is filed as organism-based. Particulars: in vivo, 336 h, dose 2.5-5 mg/kg.
Data set [17] in a line: Cytotoxicity against mouse 3T3-L1 cells assessed as cell viability at 100 uM incubated for 24 hrs by MTT assay relative to control. Conditions: 3T3-L1 cells, read-out: Activity. It counts as toxicity, cell-based.
Another data set has as its system Klebsiella pneumoniae. Kind of data set: Antibacterial activity against Klebsiella pneumoniae ATCC 27736 incubated for 16 to 18 hrs by broth dilution assay. It is filed as functional. Particulars: time 16-18 hrs.
Data set [18] relates to Escherichia coli. The data set can be described thus: Induction of resistance development in Escherichia coli ATCC 25922 assessed as fold increase in MIC at sub-MIC measured after 30 passages relative to control. It is filed as functional.
In data set [19] the test system is Staphylococcus aureus. The data set can be described thus: Disruption of plasma membrane integrity in Staphylococcus aureus ATCC 25923 by SYTOX-Green uptake assay. It is filed as functional, organism-based.
Data set [20] concerns Escherichia coli. Kind of data set: Bactericidal activity against Escherichia coli ATCC 25922 at MIC incubated for 30 mins by time kill assay. It counts as functional, organism-based.
Data set [21] has as its system Escherichia coli. The data set can be described thus: Disruption of membrane integrity in Escherichia coli ATCC 25922 by PI staining based analysis. It counts as functional, organism-based.
The test system of the next data set is Bacillus subtilis. The data set can be described thus: Antibacterial activity against Bacillus subtilis 6633 incubated for 16 to 18 hrs by broth dilution assay. It is filed as functional. Conditions: time 16-18 hrs.
The test system of data set [22] is Escherichia coli. Kind of data set: Disruption of plasma membrane integrity in Escherichia coli ATCC 25922 by SYTOX-Green uptake assay. It counts as functional, organism-based.
Data set [23] has as its system Mycolicibacterium smegmatis. Kind of data set: Antimycobacterial activity against Mycobacterium smegmatis assessed as reduction in bacterial growth at 2 times MIC pretreated for 1 hr followed by compound removal and subsequent culturing in fresh media without compound for 24 hrs measured after 4 days. It is filed as functional, organism-based.
Data set [24] can be described thus: Toxicity in mouse assessed as change in serum AST level at 15 mg/kg, iv administered each day for 5 days measured after 7 days post-last dose. It counts as organism-based. Particulars: in vivo, 120 h, time 5 day.
In data set [25] the test system is Escherichia coli. The data set can be described thus: Antibacterial activity against Escherichia coli ATCC 25922 incubated for 16 to 18 hrs by broth dilution assay. It is filed as functional. Conditions: time 16-18 hrs.
The nature of data set [26]: Hemolytic activity in human RBC measured after 40 mins by absorbance based assay. It counts as toxicity, cell-based, Erythrocyte. Conditions: human red blood cells.
For data set [27], the system named is Staphylococcus aureus. The data set can be described thus: Bactericidal activity against Staphylococcus aureus ATCC 25923 at MIC incubated for 45 mins by time kill assay. It counts as functional, organism-based.
Data set [28] relates to Escherichia coli. The data set can be described thus: Induction of membrane depolarization in Escherichia coli ATCC 25922 by diSC3-5 dye based analysis. It counts as functional, organism-based.
Data set [29] deals with Escherichia coli. Kind of data set: Bactericidal activity against Escherichia coli ATCC 25922 incubated for 16 to 18 hrs. It counts as functional. Particulars: time 16-18 hrs.
Data set [30] deals with Staphylococcus aureus. The data set can be described thus: Antibacterial activity against methicillin-resistant Staphylococcus aureus 33591 incubated for 16 to 18 hrs by broth dilution assay. It is filed as functional. Conditions: time 16-18 hrs.
Data set [31] relates to Staphylococcus aureus. The data set can be described thus: Antibacterial activity against methicillin-resistant Staphylococcus aureus BAA-44 incubated for 16 to 18 hrs by broth dilution assay. It counts as functional. Particulars: time 16-18 hrs.
In data set [32] the test system is Escherichia coli. Kind of data set: Induction of cell membrane damage in Escherichia coli ATCC 25922 at 3 times MIC incubated for 60 mins by SEM analysis. It is filed as functional, organism-based.
In data set [33] the test system is Staphylococcus aureus. Kind of data set: Induction of resistance development in Staphylococcus aureus ATCC 25923 assessed as fold increase in MIC at sub-MIC measured after 25 passages relative to control. It counts as functional.
Data set [34] relates to Escherichia coli. Kind of data set: Induction of resistance development in Escherichia coli ATCC 25922 assessed as fold increase in MIC at sub-MIC measured after 25 passages relative to control. It is filed as functional.
For data set [35], the system named is Mycolicibacterium smegmatis. The data set can be described thus: Antitubercular activity against Mycobacterium smegmatis incubated for 24 hrs by rezasurin dye based assay. It is filed as functional.
Data set [36] in a line: Cytotoxicity against rat L6 cells assessed as cell viability at 100 uM incubated for 24 hrs by MTT assay relative to control. It is filed as toxicity, cell-based. Particulars: L6 cells, read-out: Activity. (Tetrazolium dyes change colour on reduction, which living cells bring about.)
For data set [37], the system named is Staphylococcus aureus. Kind of data set: Disruption of membrane integrity in Staphylococcus aureus ATCC 25923 by PI staining based analysis. It counts as functional, organism-based.
The test system of data set [38] is Staphylococcus aureus. Kind of data set: Bactericidal activity against Staphylococcus aureus ATCC 25923 at MIC incubated for 30 mins by time kill assay. It counts as functional, organism-based.
In data set [39] the test system is Staphylococcus aureus. The data set can be described thus: Induction of cell membrane damage in Staphylococcus aureus ATCC 25923 at 3 times MIC incubated for 60 mins by SEM analysis. It is filed as functional, organism-based.
The next data set has as its system Pseudomonas aeruginosa. Kind of data set: Antibacterial activity against Pseudomonas aeruginosa ATCC BAA-427 incubated for 16 to 18 hrs by broth dilution assay. It counts as functional. Conditions: time 16-18 hrs.

As to `CC(C)C[C@H](NC(=O)[C@H](CCCNC(=N)N)NC(=O)CNC(=O)[C@H](CC(C)C)NC(=O)[C@H](CCCNC(=N)N)NC(=O)CNC(=O)[C@H](CC(C)C)NC(=O)[C@H](CCCNC(=N)N)NC(=O)CNC(=O)[C@H](CC(C)C)NC(=O)[C@H](CCCNC(=N)N)NC(=O)CNC(=O)[C@H](CC(C)C)NC(=O)[C@H](CCCNC(=N)N)NC(=O)CNC(=O)c1cc(C(=O)O)ccc1-c1c2ccc(=[N+](C)C)cc-2oc2cc(N(C)C)ccc12)C(=O)O.[Cl-]` (HELM PEPTIDE1{[CN(C)c1ccc2c(-c3ccc(C(=O)O)cc3C(=O)[*:2])c3ccc(=[N+](C)C)cc-3oc2c1].G.R.L.G.R.L.G.R.L.G.R.L.G.R.L}$$$$V2.0), the Drug uptake result in [1] is listed as “Active”.
With H-VLGRVLGRVLGRVLGR-OH, the outcome in [2] was inactive. For the same molecule, the result (with Escherichia coli [3]; with Staphylococcus aureus [5]; in the data set on Staphylococcus aureus [19]; in the data set with Escherichia coli [21]; in the data set on Escherichia coli [22]; in data set [23]) was Active. The outcome in the data set on Staphylococcus aureus [27], with Escherichia coli [28], in the data set on Escherichia coli [32], with Staphylococcus aureus [37] and in the data set with Staphylococcus aureus [39] was Active. Further, the Activity result is “Non-toxic” in [4]; “Non-toxic” in [8]; “Non-toxic” in data set [13]; “Non-toxic” in data set [16]; “Active; Emerged As Swiftest Molecule” in the data set on Escherichia coli [20]; “Non-toxic” in [24]. Besides, the Activity result in the data set with Staphylococcus aureus [38] was “Active; Emerged As Swiftest Molecule”. In addition, the MBC with Staphylococcus aureus [6] and against Escherichia coli [29] was 3.6 µM throughout. Also, the MIC in the data set with Escherichia coli [7] stood at 14.4 µM; against Staphylococcus aureus [9] it was 3.6 µM; in the data set on Staphylococcus aureus [10], 14.4 µM; with Klebsiella pneumoniae, 3.6 µM; in the data set on Bacillus subtilis, 3.6 µM; in the data set on Escherichia coli [25], 1.8 µM. Also, the MIC in the data set with Staphylococcus aureus [30] came to 7.3 µM; with Staphylococcus aureus [31], 3.6 µM; in data set [35], 2.5 µM; against Pseudomonas aeruginosa, 7.3 µM. Also, the “fold change (FC)” value in the data set with Staphylococcus aureus [11] worked out at 4; in the data set on Staphylococcus aureus [12] it was 4; in the data set with Staphylococcus aureus [14] it was 4; with Escherichia coli [18] it was 4; with Staphylococcus aureus [33], 2; with Escherichia coli [34] it was 2. The Retention_time in data set [15] is recorded as 20.54 min. Further, the viability at 24 h, 100 µM in [17] and in [36] was 75% throughout. For the same molecule, in [26], the HC50 at 40 min was 2 mM.

As a reminder, the MBC is the smallest concentration meeting the test's criterion for killing. A higher MBC goes with less potent killing. As usually defined, the MIC is the smallest concentration in the dilution series that meets the test's criterion for growth inhibition. By HC50 is commonly meant the concentration giving 50% haemolysis. Higher therefore signals weaker haemolysis.
